Assay results taken from US20260027221A1, “Targeted Pyrrolobenzodiazapine Conjugates” (BeOne Medicines I GmbH, priority 2023, published 2026).
Where “and” joins values, the source holds several entries; their conditions need not be identical. Identical values can stand only once.

What was measured:
[1] = system: Calu-6 cells; assay: Compounds cellular killing in Calu-6 cancer line (Cell Titer-Glo, 6 days); type: cell-based, human; conditions: 6 days incubation, cell viability by Cell Titer-Glo; for Emax / EC50: Homo sapiens, Calu-6, 144 h
Experimental: (§1) Calu-6 (ATCC, HTB-56). […] The base medium for Calu-6 is Eagle's Minimum Essential Medium (ATCC, 30-2003). To make the complete growth medium, fetal bovine serum was added to the base mediumat a final concentration of 10% (Gibco, 10099-141C). The cell line was grown in a humidified 5% CO2 atmosphere at 37° C., and was regularly tested for the presence of mycoplasma with MycoAlert™ PLUS Mycoplasma Detection Kit (Lonza, LT07-710).
(§2) Payload direct killing by compounds 1-1 to 1-22 was assessed in A375 and Calu-6 cancer cell lines. Cells were seeded at 1E3/well (A375) 2E3/well (Calu-6) into 96-well plates (Greiner: 655090), 100 μL/well, and incubated at 37° C., 5% CO2, overnight. Fresh growth medium was added containing varying concentrations of compounds, 50 μL/well, and incubated at 37° C., 5% CO2, for 6 days. The cell viability detected by Cell Titer-Glo (Promega, G7573), 70 μL/well. The plates were allowed to incubate at room temperature for 10 minutes to stabilize the luminescent signal. The plates were analyzed with a microplate reader.

[2] = system: A375 cells; assay: Compounds cellular killing in A375 cancer line (Cell Titer-Glo, 6 days); type: cell-based, human; conditions: 6 days incubation, cell viability by Cell Titer-Glo; for Emax / EC50: Homo sapiens, A-375, 144 h
Experimental: as §1, with “A375” for “Calu-6”, “CRL-1619).” for “HTB-56).”, “DMEM, high glucose, GlutaMAX™ Supplement (Gibco, 10566024).” for “Eagle's Minimum Essential Medium (ATCC, 30-2003).”
as §2

Compound | Calu-6 Emax (%) [1] | Emax [1] | A375 Emax (%) [2] | Emax [2] | EC50 [1] | EC50 [2]
COc1cc2c(cc1OCCCCCOc1cc3c(cc1OC)C(=O)N1C=C(C)C[C@H]1C=N3)N=C[C@@H]1CC(C)=CN1C2=O [Ref-1-1, reference compound] | 99.8% and 99.3% and 93.1% | 99.5% | 99.9% and 99.6% | 99.8% |  | 
COc1cc2c(cc1OCc1cccc(COc3cc4c(cc3OC)C(=O)N3CC5(CC5)C[C@H]3CN4)c1)N=C[C@@H]1CC3(CC3)CN1C2=O [Compound 1-9, (S)-7-methoxy-8-((3-((((S)-7-methoxy-5-oxo-5,11a-dihydro-1H,3H-spiro[benzo[e]pyrrolo[1,2-a][1,4]diazepine-2,1′-cyclopropan]-8-yl)oxy)methyl)benzyl)oxy)-1,10,11,11a-tetrahydro-3H,5H-spiro[benzo[e]pyrrolo[1,2-a][1,4]diazepine-2,1′-cyclopropan]-5-one] |  | 99.7% |  | 99.9% | 0.002 nM | 0.01 nM
C=C1CCN2C(=O)c3cc(OC)c(OCCCCCOc4cc5c(cc4OC)C(=O)N4CC6(CC6)C[C@H]4C=N5)cc3N=C[C@@H]2C1 [Compound 1-7, (S)-7-methoxy-8-((5-(((S)-2-methoxy-8-methylene-12-oxo-6a,7,8,9,10,12-hexahydrobenzo[e]pyrido[1,2-a][1,4]diazepin-3-yl)oxy)pentyl)oxy)-1,11a-dihydro-3H,5H-spiro[benzo[e]pyrrolo[1,2-a][1,4]diazepine-2,1′-cyclopropan]-5-one] |  | 97.7% |  | 89% | 0.017 nM | 0.102 nM
COc1cc2c(cc1OCCCOc1cc3c(cc1OC)C(=O)N1CC4(CC4)C[C@H]1CN3)N=C[C@@H]1Cc3ccccc3CN1C2=O [Compound 1-15, (S)-2-methoxy-3-(3-(((S)-7-methoxy-5-oxo-5,10,11,11a-tetrahydro-1H,3H-spiro[benzo[e]pyrrolo[1,2-a][1,4]diazepine-2,1′-cyclopropan]-8-yl)oxy)propoxy)-7,12-dihydrobenzo[5,6][1,4]diazepino[1,2-b]isoquinolin-14(6aH)-one] |  | 99.7% |  | 99.5% | 0.045 nM | 0.134 nM
COc1cc2c(cc1OCc1cc(O)cc(COc3cc4c(cc3OC)C(=O)N3CC5(CC5)C[C@H]3C=N4)c1)N=C[C@@H]1CC3(CC3)CN1C2=O [Compound 1-18, (11aS,11a″S)-8,8″-(((5-hydroxy-1,3-phenylene)bis(methylene))bis(oxy))bis(7-methoxy-1,11a-dihydro-3H,5H-spiro[benzo[e]pyrrolo[1,2-a][1,4]diazepine-2,1′-cyclopropan]-5-one)] |  | 89.8% |  | 80.3% | 0.126 nM | 0.398 nM
C=C1C[C@H]2C=Nc3cc(OCCN(C)CCOc4cc5c(cc4OC)C(=O)N4CC(=C)C[C@H]4C=N5)c(OC)cc3C(=O)N2C1 [Compound 1-22, (11aS,11a′S)-8,8′-(((methylazanediyl)bis(ethane-2,1-diyl))bis(oxy))bis(7-methoxy-2-methylene-1,2,3,11a-tetrahydro-5H-benzo[e]pyrrolo[1,2-a][1,4]diazepin-5-one)] |  | 99.2% |  | 97.3% | 1.3 nM | 5.5 nM
COc1cc2c(cc1OCCOCCOc1cc3c(cc1OC)C(=O)N1CC4(CC4)C[C@H]1C=N3)N=C[C@@H]1Cc3ccccc3CN1C2=O [Compound 1-5, (S)-2-methoxy-3-(2-(2-(((S)-7-methoxy-5-oxo-5,11a-dihydro-1H,3H-spiro[benzo[e]pyrrolo[1,2-a][1,4]diazepine-2,1′-cyclopropan]-8-yl)oxy)ethoxy)ethoxy)-7,12-dihydrobenzo[5,6][1,4]diazepino[1,2-b]isoquinolin-14(6aH)-one] |  | 90.8% |  | 39.2% | 0.165 nM | > 1 nM
